The values that follow come from paper PMC12384620, “Hit-to-Lead Studies of Pyrazinylpiperazines against Visceral Leishmaniasis: Pharmacokinetic Profile and In Vivo Efficacy of Potent Compounds against Leishmania infantum” (ACS Pharmacology & Translational Science, 2025).

A short description of data set [1]: PAMPA gastrointestinal tract permeability. The data set is classed as in vitro ADME. As to conditions: for Papp at 8 h, 0.5 mM: PAMPA-GI, read-out: GI Pe. On the procedure:
A 10 mM solution of each compound in DMSO was prepared and subsequently homogenized in a 5 mL flask with 4.75 mL PBS (pH 6.6) (10 mM). […] 180 μL of a PBS (pH 7.4)/DMSO (95:5) solution were then added to the wells of a 96-well receiver plate, and 5 μL of a L-α-phosphatidylcholine solution (20 mg/mL in dodecane) to the wells of a 96-well donor plate. After 5 min, 180 μL of the solutions containing each compound were added to the wells of the donor plate, in triplicate, and the donor plate was carefully placed over the receiver plate in a “sandwich-like” system, which was left stirring (50 rpm) for 8 h at rt in a sealed vessel containing 10 mL PBS (pH 7.4). Afterward, the donor plate was removed, and the content of the receiver plate was transferred to a UV reading plate, which was read using a microplate reader (SpectraMax 5 – Molecular Devices). A reference sample for the internal correction of the microplate reader was prepared using 180 μL of the PBS (pH 7.4)/DMSO (95:5) solution (adapted from refs and ). The optical density values obtained from the content of the receiver plate were compared with the ones obtained from readings performed with the initial solutions containing each compound, before their addition to the donor plate. […] The optical density values from the receptor plate were compared to those from experimental controls to determine the F a value for each compound, using Microsoft Excel.

Data set [2] relates to L. braziliensis. Nature of the data set: Inhibition of growth of L. braziliensis in THP-1 macrophages. The data set is classed as cell-based. As to conditions: Leishmania braziliensis. From the text: 1 In Vitro Antileishmanial Potency, Selectivity Index, and ADME Properties of Compounds 1 – 6 | column: L. braziliensis IC50 (μM)^b (SI)^b
Data set [3] has as its system L. infantum. Kind of data set: Antileishmanial activity against L. infantum amastigotes in THP-1 macrophages. The data set is classed as cell-based. As to conditions: Leishmania infantum; growth of L. infantum in THP-1 macrophages, 72 h. The method, then: The in vitro anti-L. infantum activity (IC50) of each compound was evaluated on THP-1 cells (human leukemia monocytic cell line) infected with L. infantum promastigotes, and the in vitro cytotoxicity (CC50) was determined over the THP-1 cell line. The selectivity index (SI) was calculated as the ratio of the CC50 value determined in the cytotoxicity assay, divided by the IC50 value determined in the antileishmanial activity assay.
Cells derived from the human monocytic strain THP-1 were cultured in complete Rowell Park Memorial Institute (RPMI)-1640 medium (supplemented with 10% fetal bovine serum, 100 U/mL penicillin, and 100 μg/mL streptomycin). Monocytes were differentiated into macrophages by the addition of 20 ng/mL phorbol myristate acetate (PMA). After 72 h, the macrophages (5 × 10^4), in black 96-well microtiter plates (Corning Incorporated, Corning, NY), were infected with Leishmania (Leishmania) infantum (MHOM/BR/1974/PP75) promastigotes transfected with gene tdTomato, on the second day of the stationary phase (20 parasites per macrophage) for 4 h. […] The IC50 values were determined by nonlinear regression using a variable slope model (log(concentration) vs growth inhibition) with the GraphPadPrism v8.2.0 (CA, USA) software. Controls with uninfected cells, untreated infected cells, and infected cells treated with amphotericin B at 0.25 μM (positive control) or DMSO 1% were used. Quadruplicates were run on the same plate, and the experiments were repeated at least once.

Data set [4] can be described thus: Metabolic stability in mouse liver microsomes. The data set is classed as in vitro ADME. The note with it: pH 7.4, MLM, with NADPH cofactor; for microsomal CLint at 5 μM: read-out: Clint, intrinsic clearance; for half-life at 5 μM: read-out: t1/2, microsomal half-life. On the procedure: To a microcentrifuge tube was added 1 mg/mL Mouse Liver Microsome (MLM), a NADPH generating system consisting of 1 mM NADP+, 1.5 mM MgCl2, 3.5 mM glucose-6-phosphate and 0.5 U/mL glucose-6-phosphate dehydrogenase, and phosphate buffer (pH 7.4) in a sufficient amount for a total volume of […]. After a 15 min preincubation at 37 °C in a water bath, the enzymatic reactions were started by adding 2 μL of a […] stock solution of each compound to be assessed, reaching a final concentration of 5 μM in the tested compound. , The samples were further incubated at 37 °C under stirring (30 rpm) for predetermined periods (0, 15, 30, 45, and 60 min), and 500 μL chilled MeOH and 500 μL chilled acetonitrile were added before the samples were homogenized and left standing in an ice bath to accelerate protein precipitation. The resulting mixture was centrifugated at 13000 rpm for 15 min at 4 °C, the organic layer was extracted and 2 μL internal standard (clonazepam 5 μM) was added. Finally, the samples were filtered through a PVDF filter (Millex 0.22 μm x 13 mm) and analyzed by HPLC-PDA. ,

Data set [5] is described as follows: PAMPA blood-brain barrier permeability. The data set is classed as in vitro ADME. The note with it: for BBB permeation class: PAMPA-BBB classification; for Papp at 0.2 mg/mL: PAMPA-BBB, pH 7.4, read-out: BBB Pe. The method, then: One mg of each compound was solubilized in ethanol (1 mL) in a 5 mL flask, and an additional 500 μL ethanol and 3.5 mL PBS buffer (pH 7.4) were added to this solution. […] 180 μL of a PBS (pH 7.4)/ethanol (70:30) solution were then added to the wells of a 96-well receiver plate, and 5 μL of a porcine brain lipid solution (20 mg/mL in dodecane) to the wells of a 96-well donor plate. […] Afterward, the donor plate was removed, and the content of the receiver plate was transferred to a UV reading plate, which was read using a microplate reader (SpectraMax 5 – Molecular Devices). A reference sample for the internal correction of the microplate reader was prepared using 180 μL of the PBS (pH 7.4)/ethanol (70:30) solution (adapted from ref ). The optical density values obtained from the content of the receiver plate were compared with the ones obtained from readings performed with the initial solutions containing each compound, before their addition to the donor plate. […] The optical density values for the experimental controls were used to determine the equation of the linear regression (optical density vs P e ), which allowed the determination of the P e value of each compound from the optical density values obtained from the receiver plate, using an in-house Microsoft Excel spreadsheet.

For data set [6], the system named is L. infantum promastigotes. Nature of the data set: Flow cytometric cell cycle analysis (PI). The note with it: 24 h, 0.5x, 1x, 2x IC50, PI. The data set is classed as cell-based, Leishmania infantum. On the procedure:
Then, the cells were collected, washed twice with 1 × PBS, and fixed in 70% ethanol at 4 °C for 24 h. The fixed parasites were then washed with 1 × PBS and the pellet was treated with 500 μL of RNase A (20 mg/mL) and incubated at 37 °C for 1 h. Subsequently, the parasites were stained with 10 μg/mL propidium iodide (PI) in the dark for 20 min. Cell cycle distribution, determining the percentage of cells in G0, G1, S, and G2/M phases, was analyzed using an Accuri C5 BD flow cytometer. The histograms presented are representative of results obtained from three independent experiments.

The test system of data set [7] is L. infantum::tdTomato intracellular amastigotes. Nature of the data set: Synergism between 2 and Sb^III against intracellular L. infantum amastigotes. The data set is classed as cell-based, Leishmania infantum. As to conditions: compounds tested separately, 72 h; read-out: IC50 against intracellular amastigotes of L. infantum. The method, then:
Cells derived from the human monocytic strain THP-1 were cultured in complete Rowell Park Memorial Institute (RPMI)-1640 medium (supplemented with 10% fetal bovine serum, 100 U/mL penicillin, and 100 μg/mL streptomycin). Monocytes were differentiated into macrophages by the addition of 20 ng/mL phorbol myristate acetate (PMA). After 72 h, the macrophages (5 × 10^4), in black 96-well microtiter plates (Corning Incorporated, Corning, NY), were infected with Leishmania (Leishmania) infantum (MHOM/BR/1974/PP75) promastigotes expressing red fluorescence protein on the second day of the stationary phase (20 parasites per macrophage) for 4 h. […] To investigate the possibility of synergism between Sb^III and compound 2, […] different concentrations of these drugs were used (1.0, 0.5, 0.2, 0.1, and 0.05 μg/mL), the solutions of Sb^III and 2 being prepared and diluted the day of the assay. The compounds were tested separately and in combination. […] The EC50 values were determined by nonlinear regression using a Variable slope model (log(concentration) vs growth inhibition) with the GraphPadPrism v8.2.0 (CA, USA) software. By normalizing the data as a fractional response, it was possible to perform the calculation using a Bayesian model. The results were compared to each other to determine whether the combination of compounds has a synergistic, antagonistic or additive effect. Controls with uninfected cells, untreated infected cells, infected cells treated with amphotericin B at 0.25 μM (positive control) or DMSO 1% were used. Quadruplicates were run on the same plate, and the experiments were repeated at least once.

For data set [8], the system named is L. infantum::tdTomato. The data set is classed as in vivo, mouse. As to conditions: 500 mg/kg/day i.p., 10 days. The method, then:
BALB/c mice (male, 6 to 8 weeks old, 18 to 20 g) were inoculated intravenously (tail vein) with 2 × 10^7 late-log-phase L. infantum promastigotes from Li::tdTomato lines, and randomly assigned into one of the four treatment groups (six mice per group). After 7 days of infection, […] was administered intraperitoneally in a single dose 500 mg/kg/day meglumine antimoniate (Glucantime, Sanofi Medley), both groups treated with 2 received two daily intraperitoneal injections totaling either 50 mg/kg/day or 100 mg/kg/day of 2, and the control group was administered the vehicle solution. For the intraperitoneal injection, 2 was formulated as follows: a stock solution of 2 in DMSO (100 mg/mL) was prepared daily, and a solution of 70% PBS1X, 20% PEG 400 (Polyethylene Glycol 400, Sigma-Aldrich), 0.16% Tween 80 and 10% of 2 (from the stock solution) was prepared. The control group was also administered this solution, replacing 2 with 10% DMSO. All mice were euthanized 3 days after the end of the treatment, and the liver and spleen of each animal were collected.
The number of viable parasites in each organ was determined using a quantitative limiting dilution assay. Briefly, the organs were macerated using an Ultra-Turrax disperser (IKA-Werke GmbH & Co. KG., Staufen, Germany), and a tissue homogenate was obtained with 1 mL of M199 medium. Each tissue homogenate was sequentially diluted (10-fold) in 96-well flat-bottom microtiter black plates and incubated at 26 °C for 10 days. The wells containing motile promastigotes were identified with an inverted microscope (Axiovert 25, Zeiss), and the parasite burden was determined from the highest dilution at which promastigotes had grown after 10 days of incubation.

With `CC(C)NCC(O)COc1ccc(CC(N)=O)cc1` (stereo not drawn) [Atenolol, reference compound], the “Fa, fraction absorbed (GI)” value in data set [1] is recorded as 1.70%.

`C[C@@H]1[C@H](O)[C@@H](C)/C=C/C=C/C=C/C=C/C=C/C=C/C=C/[C@H](O[C@@H]2O[C@H](C)[C@@H](O)[C@H](N)[C@@H]2O)C[C@@H]2O[C@](O)(C[C@@H](O)C[C@@H](O)[C@H](O)CC[C@@H](O)C[C@@H](O)CC(=O)O[C@H]1C)C[C@H](O)[C@H]2C(=O)O` [AmB, Amphotericin B, reference compound]: the half-maximal inhibitory concentration (IC50) in data set [2] worked out at 100 nM; in data set [3], 300 nM.

Turning to `COc1ccc(C(=O)N2CCN(c3cnccn3)CC2)cc1` [Compound 3, (4-Methoxyphenyl)(4-(pyrazin-2-yl)piperazin-1-yl)methanone], in data set [4], the microsomal CLint at 5 μM came to 0.925 µL/min/mg and the half-life at 5 μM amounted to 3.12 h. Besides, in data set [5], the BBB permeation class entry is “CNS± (CNS±: uncertain BBB permeation, 2.0 < P e (10^–6 cm/s) < 4.0)” and the Papp at 0.2 mg/mL was determined as 2.21 ×10⁻⁶ cm/s. Moreover, in data set [1], the “Fa, fraction absorbed (GI)” value turned out to be 99.90% and the Papp at 8 h, 0.5 mM was found to be 18.2 ×10⁻⁶ cm/s. For the same compound, the 50% inhibitory concentration (IC50) in data set [2] was 10100 ± 2800 nM. This compound gave an IC50 in data set [3] of 4500 ± 700 nM.

Regarding `Nc1ccc(C(=O)N2CCN(c3cnccn3)CC2)cn1` [Compound 4, (6-Aminopyridin-3-yl)(4-(pyrazin-2-yl)piperazin-1-yl)methanone], in data set [4], the microsomal CLint at 5 μM was 0.675 µL/min/mg and the half-life at 5 μM was 4.28 h. The Papp at 0.2 mg/mL in data set [5] came out at 1.02 ×10⁻⁶ cm/s. For the same compound, in data set [1], the “Fa, fraction absorbed (GI)” value came to 99.91% and the Papp at 8 h, 0.5 mM was found to be 18.4 ×10⁻⁶ cm/s. This compound also came in with a concentration for half-maximal inhibition (IC50) in data set [2] of 11900 ± 1100 nM. In data set [3], this compound had an IC50 of 5100 ± 2100 nM.

With `CCCCCCCCCCCCCCCCOP(=O)([O-])OCC[N+](C)(C)C` [Miltefosine, miltefosine, reference compound], the “effect on cell cycle progression” value in data set [6] was “same pattern of cell cycle arrest”.

With `[Sb+3]` [Sb^III, reference compound], the IC50 in data set [7] turned out to be 2400 ± 470 nM.

Take `O=C(c1ccc2cc(O)ccc2c1)N1CCN(c2cnccn2)CC1` [Compound 5, (6-Hydroxynaphthalen-2-yl)(4-(pyrazin-2-yl)piperazin-1-yl)methanone]: in data set [4], the microsomal CLint at 5 μM was 0.8 µL/min/mg and the half-life at 5 μM amounted to 3.61 h. The Papp at 0.2 mg/mL in data set [5] amounted to 0.96 ×10⁻⁶ cm/s. Besides, in data set [1], the “Fa, fraction absorbed (GI)” value stood at 45.70% and the Papp at 8 h, 0.5 mM came to 1.61 ×10⁻⁶ cm/s. For the same compound, in data set [2], inhibition was half-maximal at 2600 ± 200 nM (IC50). Also, in data set [3], half-maximal inhibition (IC50) was put at 3300 ± 2700 nM.

As to `O=C(c1cccc(O)c1O)N1CCN(c2cnccn2)CC1` [Compound 6, (2,3-Dihydroxyphenyl)(4-(pyrazin-2-yl)piperazin-1-yl)methanone], in data set [4], the microsomal CLint at 5 μM amounted to 4.2 µL/min/mg and the half-life at 5 μM is 0.688 h. Moreover, in data set [5], the BBB permeation class entry is “CNS+ (CNS+: high BBB permeation, P e (10^–6 cm/s) > 4.0)” and the Papp at 0.2 mg/mL was 4.51 ×10⁻⁶ cm/s. For the same compound, in data set [1], the “Fa, fraction absorbed (GI)” value came out at 86.26% and the Papp at 8 h, 0.5 mM came to 5.22 ×10⁻⁶ cm/s. This compound also gave an IC50 in data set [2] of 200 ± 200 nM. The IC50 in data set [3] stood at 2800 ± 1100 nM.

For the compound “meglumine antimoniate [reference compound]”, in data set [8], the “parasite burden in spleen and liver” value is listed as “almost completely eradicated”.
